Experimental data published in patent US20250188088A1, “COMPOUND AND USE THEREOF” (ONQUALITY PHARMACEUTICALS CHINA LTD., priority 2022, published 2025).

System: skin contact delayed-type hypersensitivity
Test: Skin contact delayed-type hypersensitivity (DNFB) response test, ear swelling, topical ointment
Format: in vivo
Conditions: topical to ears, DNFB DTH, Balb/c mice, compared to blank ointment
Procedure, shortened: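 Balb/c mice sensitized with DNFB on the back on Days 0–1, then challenged on Day 5 with 0.2% DNFB on both ears. Ear thickness measured by micrometer 24–72 h after challenge. Compound ointment applied topically over Days −1–7 or Days 4–7; effect is the reduction in ear swelling versus blank ointment, with ≥20% deemed effective.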

## C[C@@H]1CCN(C(=O)CC#N)C[C@@H]1N(C)c1ncnc2c1ccn2C(=O)N(C)CCOC(=O)C1CCCO1 (some centres unmarked) [Compound A7]
Ointment 0.05 wt%
  Reduction Rate of Ear Swelling: 18%
Ointment 0.1 wt%
  Reduction Rate of Ear Swelling: 22%
Ointment 1.0 wt%
  Reduction Rate of Ear Swelling: 27%
Ointment 5.0 wt%
  Reduction Rate of Ear Swelling: 35%
Ointment 10.0 wt%
  Reduction Rate of Ear Swelling: 42%
